The values below come from US8383139B2 (Bayer CropScience AG, priority 2008, dated 2013).

Where two headings read alike, the source gives them in different places.

One series relates to Phakopsora pachyrhizi. Kind of series: Phakopsora test (soybean)/protective. The series is classed as in vivo. Particulars: 264 h, 500 ppm active substance, protective, evaluation 11 days after inoculation, read-out: degree of effectiveness. The procedure: • Solvent: 28.5 parts by weight of acetone • Emulsifier: 1.5 parts by weight of polyoxyethylene alkylphenyl ether (polyoxy-ethylene (16) tristearylphenyl ether)
To prepare a suitable active substance composition, 1 part by weight of active substance is mixed with the given amounts of solvent and emulsifier and the concentrate is diluted to the desired concentration using water.
For the testing of protective effectiveness, young plants are sprayed with the active substance composition at the application rate given. One day after the spraying, the plants are sprayed with an aqueous suspension of spores of Phakopsora pachyrhizi. The plants remain in a greenhouse at 20° C. and 80% relative humidity.
Evaluation is carried out 11 days after the inoculation. In this connection, 0% means a degree of effectiveness corresponding to that of the control, while a degree of effectiveness of 100% means that no infestation is observed.

The subject of a further series is Uromyces appendiculatus. Kind of series: Uromyces test (beans)/protective. The series is classed as in vivo. The conditions noted are these: 240 h, 100 ppm active substance, protective, evaluation 10 days after inoculation, read-out: degree of effectiveness. In a few lines: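 Young bean plants were sprayed with compound (acetone/dimethylacetamide/emulsifier concentrate diluted in water), dried, then inoculated with U. appendiculatus spores. They were held 1 day at ~20 °C, 100% RH, then kept in a greenhouse at ~21 °C, ~90% RH. Efficacy was scored at 10 days post-inoculation (0% = control, 100% = no infestation).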

The next series deals with Puccinia triticina. As to the kind of experiment: Puccinia triticina test (wheat)/protective. Particulars: 192 h, 500 ppm active substance, protective, evaluation 8 days after inoculation, read-out: degree of effectiveness. The series is classed as in vivo. In a few lines: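 Protective test: young wheat plants sprayed with compound (in N,N-dimethylacetamide/emulsifier, diluted in water) at the stated rate, dried, then inoculated with Puccinia triticina spores; 48 h at 20 °C, 100% RH, then greenhouse ~20 °C, ~80% RH. Efficacy scored 8 days post-inoculation, 0% = untreated control, 100% = no infestation.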

A further series concerns Sphaerotheca fuliginea. As to the kind of experiment: Sphaerotheca test (cucumber)/protective. The series is classed as in vivo. Particulars: Podosphaera fuliginea, 168 h, 500 ppm active substance, protective, evaluation 7 days after inoculation, read-out: degree of effectiveness. In a few lines: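 Young cucumber plants sprayed at the stated rate with active substance in DMF/alkylaryl polyglycol ether emulsifier diluted in water, then inoculated with Sphaerotheca fuliginea spores one day later. Kept in greenhouse at 70% relative humidity, 23° C.; scored 7 days post-inoculation as % efficacy (0% = untreated control, 100% = no infestation).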

Series [1] is described as follows: log P by HPLC on reversed-phase columns (C 18), EEC Directive 79/831 Annex V.A8. In kind it is physicochemical. Particulars: reversed-phase C18 HPLC column.
The next series concerns Alternaria solani. As to the kind of experiment: Alternaria test (tomato)/protective. Particulars: 72 h, 100 ppm active substance, protective, evaluation 3 days after inoculation, read-out: degree of effectiveness. In kind it is in vivo.
A further series deals with Septoria tritici. As to the kind of experiment: Septoria tritici test (wheat)/protective. The series is classed as in vivo. The conditions noted are these: Zymoseptoria tritici, 504 h, 500 ppm active substance, protective, evaluation 21 days after inoculation, read-out: degree of effectiveness. In a few lines:
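Young wheat plants sprayed with compound in dimethylacetamide/emulsifier-water, then inoculated with S. tritici spores once dry. Kept 48 h at 20 °C/100% RH, 60 h at 15 °C/100% RH, then greenhouse ~15 °C/80% RH. Scored 21 days post-inoculation as % efficacy versus untreated control.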

The mark [2] stands for this setting: pH 2.3, [a] HPLC, acid region pH 2.3, 0.1% aqueous phosphoric acid and acetonitrile, read-out: log p.
[3] abbreviates: pH 2.3, pH 2.3, given in synthesis examples, read-out: log P (pH2.3).

For `CCN(C)C=Nc1cc(C)c(Oc2nc(Cc3ccc(Br)cc3)ns2)cc1C` [Example 31, N′-(4-{[3-(4-bromobenzyl)-1,2,4-thiadiazol-5-yl]oxy}-2,5-dimethylphenyl)-N-ethyl-N-methylimidoformamide], the pest or weed control at 500 ppm in the series with Phakopsora pachyrhizi is at least 80%; in the series with Puccinia triticina, at least 70%; with Sphaerotheca fuliginea, at least 70%; in the series on Septoria tritici, at least 70%. The pest or weed control at 100 ppm in the series with Uromyces appendiculatus and in the series on Alternaria solani was at least 70% each time. For the same compound, the chromatographic logP in series [1] (setting [2]) came out at 2.07.
Regarding `CCN(C)C=Nc1cc(C)c(Oc2nc(Cc3cccc(Cl)c3)ns2)cc1C` [Example 35, N′-(4-{[3-(3-chlorobenzyl)-1,2,4-thiadiazol-5-yl]oxy}-2,5-dimethylphenyl)-N-ethyl-N-methylimidoformamide], the pest or weed control at 500 ppm is at least 80% in the series on Phakopsora pachyrhizi, at least 70% with Puccinia triticina, at least 70% in the series with Sphaerotheca fuliginea and at least 70% in the series with Septoria tritici. The pest or weed control at 100 ppm in the series on Uromyces appendiculatus and with Alternaria solani was at least 70% each time. In addition, the chromatographic logP in series [1] (setting [2]) and in series [1] (setting [3]) was 2.31 in each case.
In the case of `CCN(C)C=Nc1cc(C)c(Oc2nc(C3(c4ccc(Cl)cc4)CC3)ns2)cc1C` [Example 37, N′-[4-({3-[1-(4-chlorophenyl)cyclopropyl]-1,2,4-thiadiazol-5-yl}oxy)-2,5-dimethylphenyl]-N-ethyl-N-methylimidoformamide], the pest or weed control at 500 ppm in the series on Phakopsora pachyrhizi is at least 80%; in the series with Puccinia triticina, at least 70%; in the series with Sphaerotheca fuliginea it was at least 70%; in the series on Septoria tritici, at least 70%. Moreover, the pest or weed control at 100 ppm in the series with Uromyces appendiculatus and in the series with Alternaria solani was at least 70% each time. Moreover, the figures for the chromatographic logP in series [1] (setting [2]) and in series [1] (setting [3]) were 2.21 and 2.28, respectively.
Regarding `CCN(C)C=Nc1cc(Cl)c(Oc2nc(C3(c4ccc(Cl)cc4)CC3)ns2)cc1C` [Example 40, N′-[5-chloro-4-({3-[1-(4-chlorophenyl)cyclopropyl]-1,2,4-thiadiazol-5-yl}oxy)-2-methylphenyl]-N-ethyl-N-methylimidoformamide], the pest or weed control at 500 ppm was at least 80% with Phakopsora pachyrhizi, at least 70% in the series on Puccinia triticina, at least 70% with Sphaerotheca fuliginea and at least 70% in the series on Septoria tritici. Besides, the pest or weed control at 100 ppm in the series with Uromyces appendiculatus and in the series on Alternaria solani was at least 70% each time. Moreover, the chromatographic logP in series [1] (setting [2]) is 2.55.
In the case of `CCN(C)C=Nc1cc(C)c(Oc2nc(Cc3ccccc3OC)ns2)cc1C` [Example 49, N-ethyl-N′-(4-{[3-(2-methoxybenzyl)-1,2,4-thiadiazol-5-yl]oxy}-2,5-dimethylphenyl)-N-methylimidoformamide], the pest or weed control at 500 ppm in the series with Phakopsora pachyrhizi is at least 80%; in the series with Puccinia triticina it was at least 70%; with Sphaerotheca fuliginea, at least 70%; with Septoria tritici, at least 70%. The pest or weed control at 100 ppm in the series on Uromyces appendiculatus and in the series on Alternaria solani was at least 70% in each case. Moreover, the chromatographic logP in series [1] (setting [2]) was determined as 1.83.
As to `CCN(C)C=Nc1cc(C)c(Oc2nc(Cc3ccc(F)cc3F)ns2)cc1C` [Example 52, N′-(4-{[3-(2,4-difluorobenzyl)-1,2,4-thiadiazol-5-yl]oxy}-2,5-dimethylphenyl)-N-ethyl-N-methylimidoformamide], the pest or weed control at 500 ppm with Phakopsora pachyrhizi is at least 80%; with Puccinia triticina it was at least 70%; in the series with Sphaerotheca fuliginea, at least 70%; in the series on Septoria tritici, at least 70%. Also, the pest or weed control at 100 ppm in the series with Uromyces appendiculatus and with Alternaria solani was at least 70% in each case. The chromatographic logP in series [1] (setting [2]) is 1.94.
